Like-named read-outs stand apart in the source and are kept apart here.
Tests used:
[1] = target: Agaricus bisporus tyrosinase (AbTYR); assay: AbTYR inhibition assay; type: biochemical
Text: (§1) No. T3824). Kojic acid was employed as a positive standard. The intramelanosomal domain of hTYR was expressed and purified as previously reported in the literature.[46] The reference compound Thiamidol was purchased from BLDpharm (Shanghai, China).

[2] = target: T1, human tyrosinase (hTYR) (Homo sapiens, UniProt P14679); assay: hTYR inhibition assay; type: biochemical
T1 construct: The intramelanosomal domain of hTYR was expressed and purified; made in house
T1 sequence (P14679 19-476 limits assumed): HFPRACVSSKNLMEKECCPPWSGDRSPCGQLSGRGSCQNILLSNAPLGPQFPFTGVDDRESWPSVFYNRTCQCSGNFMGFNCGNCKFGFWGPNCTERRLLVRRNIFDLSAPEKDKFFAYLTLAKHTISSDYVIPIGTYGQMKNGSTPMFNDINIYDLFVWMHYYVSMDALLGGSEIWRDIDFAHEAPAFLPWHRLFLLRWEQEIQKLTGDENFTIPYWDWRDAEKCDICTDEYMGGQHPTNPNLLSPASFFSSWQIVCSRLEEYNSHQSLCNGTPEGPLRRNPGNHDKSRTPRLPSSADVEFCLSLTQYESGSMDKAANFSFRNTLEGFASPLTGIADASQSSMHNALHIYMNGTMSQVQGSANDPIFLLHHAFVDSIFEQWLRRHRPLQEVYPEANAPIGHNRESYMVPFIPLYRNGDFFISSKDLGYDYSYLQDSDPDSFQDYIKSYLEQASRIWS
Text: as §1

[3] = ABTS radical scavenging assay; conditions: read-out: Antioxidant activity EC50 (ABTS)
Procedure: Therefore, we conducted a preliminary assessment of the antioxidant activity of all synthesized target compounds by evaluating their ABTS radical scavenging capacity. The ABTS assay is widely recognized as one of the most reliable methods for measuring antioxidants' ability to neutralize the stable ABTS˙^+ radical cation.
The overall free radical-scavenging capacity of the compounds was evaluated using the ABTS [2,20-azinobis-(3-ethylbenzothiazoline-6-sulfonic acid)] assay according to previously described methods.[45] The method relies on the capacity of antioxidants to scavenge the ABTS˙^+ radical. To generate ABTS˙^+, a 7 mM ABTS solution was mixed with 2.45 mM potassium persulfate in water, and the mixture was incubated in the dark at room temperature for 24 h. Subsequently, 10 μL of sample at varying concentrations was added to 990 μL of the diluted ABTS˙^+ solution. After 1 min of reaction at room temperature, the absorbance was recorded at 734 nm. The reference antioxidant used was 6-hydroxy-2,5,7,8-tetramethylchromane-2-carboxylic acid (Trolox). Antioxidant activity was quantified as EC50, which represents the concentration of compound needed to reduce the initial absorbance by 50%.

[4] = MTT cell viability; type: cell-based; conditions: human, HaCaT keratinocyte cells
Procedure: Based on the inhibitory effects on hTYR and antioxidant properties on the ABTS assay, we focused our attention on compounds 2 and 3, which were further characterized as skin protective agents. In more detail, we evaluated their ability to influence the viability of human skin keratinocyte cell line HaCaT at distinct concentrations ranging from 5 to 50 μM (Fig. 6). […] Cell viability remained above 87% in compound 2 for all concentrations tested.
The 3-(4,5-dimethylthiazol-2-yl)-2,5-diphenyltetrazolium bromide (MTT) technique on human skin keratinocyte cell line (HaCaT; CLS-Cell Lines Service, Eppelheim, Germany) was employed to assess cell viability as reported by Pintus et al.[47] The cells were exposed to the compounds at concentrations ranging from […] for a duration of 24 h. Afterward, MTT reagent was added to each well, followed by incubation at 37 °C for 3 h. Following incubation, the MTT solution was removed from the culture plate, and 100 μL of DMSO solvent was added to dissolve the water-insoluble formazan crystals formed in the cells. The absorbance was then measured at 570 nm using a microplate reader (VANTAstar_BMG LABTECH GmbH, Offenburg, Germany).

[5] = test system: HaCaT cells; assay: Intracellular ROS levels (DCFH-DA), H2O2-induced; type: cell-based, human; conditions: 5–50 μM, 2 mM H2O2
Procedure: To further confirm their antioxidant capacity, we carried out an antioxidant assay in the skin keratinocyte cell line HaCaT. The levels of ROS were measured before and after exposure to H2O2-induced oxidative stress and after treatment with compounds 2 and 3 at various concentrations (5–50 μM).
Cellular ROS levels were measured using the 2′,7′-dichlorofluorescein diacetate (DCFH-DA) method.[48] HaCat cells were exposed to different concentrations of the test compounds, and after 24 h, cells were incubated with DCFH-DA (10 μM) at 37 °C for 30 min and then treated with 2 mM H2O2. The fluorescence intensity of DCF was immediately measured with a fluorescence plate reader (VANTAstar_BMGLABTECH GmbH, Offenburg, Germany).

[6] = Relative lipophilicity by RP-TLC; type: physicochemical; conditions: RP-TLC C18, acetone:water 2:1
Procedure: Based on the consideration that the lipophilicity of an active molecule exerts a relevant role in skin penetration as well as in the process of crossing the cell membrane, we chose to experimentally estimate the relative lipophilicity of the synthesized compounds 1–5. We employed reverse-phase thin layer chromatography (RP-TLC); the retardation coefficients (RFs) were measured from the chromatograms, thus generating the RM values as an estimation of the relative lipophilicity among the homogenous series of the studied compounds 1–5 in comparison with MehT-3. The Experimental procedure (4.3 Lipophilicity) contains a detailed description of the applied methods.
Experimental relative lipophilicity was determined by employing reversed phase TLC on 20 cm × 20 cm plates coated with C18 silica. The eluant was prepared by mixing acetone and water (2 : 1 (v/v)). The studied compounds and reference substances were dissolved in MeOH to obtain the working solution with a concentration of 2.0 mg mL^−1. Then, we activated the plates by heating at 105 °C for 1 h. From each working solution, a volume of 0.2 μL was spotted to the plates. The measurements were repeated three times with distinct disposition of the compounds on the plate, so that RF values represented the mean values obtained in triplicate. The chromatograms were developed at a distance of 10 cm from the origin in ascending TLC chambers at room temperature. Then, the spots of the substances were visualized by means of a UV lamp at 254 nm. Based on the retardation coefficients (RF) we calculated the relative lipophilicity RM values according to the formula RM = log[(1/RF) − 1];[44] higher RM values predict a higher lipophilicity.

[7] = test system: Agaricus bisporus tyrosinase (AbTYR); parameters: method as in PMID 37657271, PMID 36093940; conditions: cited from earlier work
[8] = target: T1, human tyrosinase (hTYR); conditions: cited from earlier work
[9] = parameters: method as in PMID 36675192; conditions: positive control; read-out: Antioxidant activity EC50 (ABTS); cited from earlier work

| SMILES | IC50 [1] [µM] | IC50 [2] [µM] | EC50 [3] [µM] | RM (relative lipophilicity) [6] | further results |
| --- | --- | --- | --- | --- | --- |
| O=C(O)c1ccccc1C(=O)N1CCN(c2ccc(O)cc2)CC1 [Compound 1, 2-[4-(4-hydroxyphenyl)piperazine-1-carbonyl]benzoic acid] | 40.7 ± 3.19 | 15.4 ± 1.2 | 17.1 ± 0.7 |  |  |
| O=C(c1ccc(=O)[nH]c1)N1CCN(c2ccc(O)cc2)CC1 [Compound 2, 5-[4-(4-hydroxyphenyl)piperazine-1-carbonyl]pyridin-2(1H)-one] | 13.2 ± 2.24 | 7.8 ± 0.8 | 9.5 ± 0.2 | −0.60 | viability at 24 h ([4]; all concentrations tested (5 to 50 μM)): > 87%; H2O2-induced ROS production [5]: decreased the production of ROS induced by hydrogen peroxide in a dose-dependent manner |
| CC(=O)N1CCN(c2ccc(O)cc2)CC1 [Compound 3, 1-[4-(4-hydroxyphenyl)piperazin-1-yl]ethan-1-one] | 31.8 ± 3.37 | 5.3 ± 0.9 | 14 ± 0.9 |  | viability at 24 h, 50 µM ([4]; 50 μM): 75%; H2O2-induced ROS production [5]: decreased the production of ROS induced by hydrogen peroxide in a dose-dependent manner |
| CCC(=O)N1CCN(c2ccc(O)cc2)CC1 [Compound 4, 1-[4-(4-hydroxyphenyl)piperazin-1-yl]propan-1-one] | 8.74 ± 0.36 | 24.1 ± 3.3 | 10.8 ± 0.3 |  |  |
| CC(=O)NCC(=O)N1CCN(c2ccc(O)cc2)CC1 [Compound 5, N-[2-[4-(4-hydroxyphenyl)piperazin-1-yl]-2-oxoethyl]acetamide] | 4 ± 0.25 | 27.2 ± 6.2 | 10.4 ± 0.1 | −0.65 |  |
| COc1ccccc1C(=O)N1CCN(c2ccc(O)cc2)CC1 [MehT-3, [4-(4-hydroxyphenyl)piperazin-1-yl](2-methoxyphenyl)methanone] |  |  |  | −0.17 | Mode of inhibition of AbTYR (kinetic analyses) [7]: competitive inhibitor; IC50 ([7]; reference compound): 3.52 ± 0.25 µM; Mode of inhibition of hTYR (kinetic analyses) [8]: competitive inhibitor |
| Cc1c(C)c2c(c(C)c1O)CCC(C)(C(=O)O)O2 (centres unmarked) [Trolox, 6-hydroxy-2,5,7,8-tetramethylchromane-2-carboxylic acid] |  |  |  |  | EC50 [9]: 13 ± 1.1 µM |
